Laboratory results: patent publication US20190185865A1, “USE OF PROKARYOTIC TRANSCRIPTIONAL ACTIVATORS AS METABOLITE BIOSENSORS IN EUKARYOTIC CELLS” (Danmarks Tekniske Universitet, priority 2016, published 2019)

Key:
Type in all cases: cell-based, Saccharomyces cerevisiae
BenM^H110R, F211V, Y286N = biological target: T1, BenM^H110R, F211V, Y286N (Acinetobacter baylyi, UniProt O68014, F211V/H110R/Y286N); assay: CCM-induced GFP expression in yeast expressing engineered BenM variants (epPCR library, FACS, flow cytometry)
T1 construct: expressed in transfected cells; host or cells: Saccharomyces cerevisiae; centromeric plasmid (gap repair) or chromosomal integration, REV1p
Text: For optimization of the CCM inducibility of BenM, purified products from three consecutive rounds of error-prone PCR (epPCR) of the effector-binding domain (EBD, residues 90-304) of BenM, were co-transformed into yeast together with linearized centromeric plasmid according to Eckert-Boulet et al. (Eckert-Boulet, N., Pedersen, M. L., Krogh, B. O. & Lisby, M. Optimization of ordered plasmid assembly by gap repair in Saccharomyces cerevisiae. Yeast 29, 323-34 (2012)), to allow for in vivo gap repair and library reconstitution of wild-type BenM DNA binding domain (DBD) fused to EBD variants expressed from REV1p. For epPCR we used the GeneMorph II kit according to manufacturer's description (Agilent Technologies). Transformed yeast contained a chromosomal integration of the 209 bp_CYC1p_BenO_T1 promoter controlling the expressing of GFP at EasyClone site 4 on chromosome XII (Mikkelsen, M. D. et al. Microbial production of indolylglucosinolate through engineering of a multi-gene pathway in a versatile yeast expression platform. Metab. Eng. 14, 104-11 (2012)), to allow for FACS-based screening of improved CCM-inducible BenM variants.
A two-step method was used to sort for BenM variants that specifically induce in the presence of CCM. Cells (10× library size, approx. 400,000 cells) were inoculated in mineral medium without inducer and incubated for 24 h at 30° C., diluted into PBS, and then GFP intensity of individual cells was measured using a BD Biosciences Aria (Becton Dickinson) with a blue laser (488 nm) by applying tight gates on the FSC and SSC channels. Only cells displaying auto-fluorescence intensities were sorted in order to limit auto-activating BenM variants. Sorted cells were recovered in mineral medium, followed by subculturing (1:100) into mineral medium containing 1.4 mM (200 mg/L) cis,cis-muconic acid. The cells were grown for 24 h at 30° C., washed and subjected to a second round of FACS. […] Individual clones were subsequently validated using flow cytometry.
Events were analyzed using FlowJo software (TreeStar Inc.).

S. cerevisiae cells = assay: Transport assay: uptake of CCM by yeast cells (LC-MS); conditions: pH 4.5, 24 h
Method: Overnight grown CEN.PK113-5A cells were diluted (OD600=0.1) into SC-HIS-LEU medium with or without 1.4 mM (200 mg/L) CCM. Media samples were taken at both 0 h and 24 h, while samples for measuring cellular lysates (10^8 cells) were harvested at 24 h. For quantification of CCM by LC-MS, cultures were harvested by centrifugation. For extracellular CCM quantification the supernatant was centrifuged twice and filtered (0.2 μm) before analysis. For intracellular CCM quantification harvested pellets were washed twice in ice-cold isotonic saline solution (0.9% NaCl) and centrifuged at 5,000×g before cells were extracted in an aqueous 0.1% formic acid solution and sonicated for 15 min. Following this, samples were centrifuged at 13,000×g and supernatants filtered (0.2 μm) prior to analysis. LC-MS data was collected on EVOQ EliteTriple Quadrupole Mass Spectrometer system coupled with an Advance UHPLC (Bruker). Samples were held at 4° C. during the analysis. A 1 μL sample was injected onto a ACQUITY HSS T3 C18 UHPLC column (Waters), with a 1.8 μm particle size and 2.1×100 mm dimensioning. The column was held at a temperature of 30° C. […] Two transitions were chosen in negative Multiple Reaction Monitoring (MRM) mode for quantification of CCM: m/z 141.70-96.80 (quantification transition) and m/z 141.70-53.1 (confirmation transition). […]

yeast cells = assay: Growth of yeast cells in liquid medium containing CCM; conditions: pH 4.5
Method: FIG. 9 (a) Uptake of cis,cis-muconic acid (CCM) at pH 4.5 by S. cerevisiae cells following 24 h of growth. (b) Representative growth curves of yeast cells in liquid medium containing different concentrations of CCM. OD values were determined at 1-h intervals over 25-h period. For both (a) and (b) data display means±s.d. from three (n=3) biological replicate cultivations.

T1 sequence (O68014 whole entry H110R/F211V/Y286N): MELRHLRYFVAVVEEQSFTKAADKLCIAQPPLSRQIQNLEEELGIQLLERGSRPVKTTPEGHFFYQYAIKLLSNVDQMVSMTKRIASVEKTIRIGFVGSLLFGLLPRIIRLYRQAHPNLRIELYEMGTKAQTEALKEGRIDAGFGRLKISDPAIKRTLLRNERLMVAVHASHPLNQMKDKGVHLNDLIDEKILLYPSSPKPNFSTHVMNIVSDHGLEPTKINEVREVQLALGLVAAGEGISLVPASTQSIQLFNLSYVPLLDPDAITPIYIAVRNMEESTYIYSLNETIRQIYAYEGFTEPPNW

With `O=C(O)/C=C\C=C/C(=O)O` [CCM, cis, cis-muconic acid] the “specificity of GFP induction among diacids tested” value (BenM^H110R, F211V, Y286N; BenM^H110R, diacids 1.4 mM, pH 4.5, 24 h) was “induce GFP expression specifically in response to CCM”, the “maximum induction of GFP output” value (BenM^H110R, F211V, Y286N; chromosomally integrated BenM^H110R, 1.4 mM (200 mg/L) CCM, 24 h) was 10 fold and the “GFP output upon CCM induction” value (BenM^H110R, F211V, Y286N; plasmid-based expression of BenM^H110R) was 6 fold. For the same compound, the “uptake of CCM by yeast” value (S. cerevisiae cells) was “directly taken up” and the “growth of yeast in presence of CCM” value (yeast cells) was “without any growth defects”.
